Test results reported in publication PMC6720511, “Synthesis and biological evaluation of novel N-(piperazin-1-yl)alkyl-1H-dibenzo[a,c]carbazole derivatives of dehydroabietic acid as potential MEK inhibitors” (Journal of Enzyme Inhibition and Medicinal Chemistry, 2019).

Key:
Hep3B = test: MTT cytotoxic assay; assay type: cell-based, human; conditions: Homo sapiens, Hep3B, 48 h, mean value ± SD
Experimental: (§1) Three human hepatocarcinoma cell lines (SMMC-7721, HepG2 and Hep3B) and normal hepatocyte cell line (QSG-7701) were maintained in Dulbecco Modified Eagle Medium (DMEM) containing 4.0 mM L-Glutamine and 4500 mg/l Glucose supplemented with 10% (v/v) foetalbovine serum (FBS) and 100 unites/mL penicillin/streptomycin at 37 °C in humidified atmosphere of 5% CO2 and 95% air.
(§2) The in vitro cytotoxic activities of the carbazole derivatives of DHA were evaluated against three human hepatocarcinoma cell lines (SMMC-7721, HepG2 and Hep3B) and a normal human hepatocyte cell line (QSG-7701) via the MTT colorimetric method. Briefly, SMMC-7721, HepG2, Hep3B and QSG-7701 cells were harvested at log phase of growth and seeded in 96-well plates (100 µL/well at a density of 2 × 10^5 cells/mL). After 24 h incubation at 37 °C and 5% CO2 to allow cell attachment, cultures were exposed to various concentrations of the isolated compounds for 48 h. Finally, MTT solution (2.5 mg/mL in PBS) was added (40 µL/well). Plates were further incubated for 4 h at 37 °C, and the formazan crystals formed were dissolved by adding 150 µL/well of DMSO. Absorption at 570 nm was measured with an ELISA plate reader. […] Doxorubicin was co-assayed as positive control.

HepG2 = test: MTT cytotoxic assay; assay type: cell-based, human; conditions: Homo sapiens, HepG2, 48 h, mean value ± SD
Experimental: as §1, §2

SMMC-7721 = test: MTT cytotoxic assay; assay type: cell-based, human; conditions: Homo sapiens, SMMC-7721, 48 h, mean value ± SD
Experimental: as §1, §2

[1] = tested on: normal hepatocyte cell line (QSG-7701); test: MTT cytotoxic assay on normal hepatocytes; assay type: cell-based, human; conditions: Homo sapiens, QSG7701, 48 h, mean value ± SD
Experimental: as §1, §2

MEK1 = biological target: T1, MEK1 (Homo sapiens, UniProt Q02750); test: In vitro MEK1 inhibition assay (ADP-Glo kinase assay); assay type: biochemical; conditions: recombinant GST-MEK1, GST-ERK2, 10 µM ATP, mean value ± SD; read-out: MEK1 inhibitory activity IC50 value
T1 construct: purchased Carna Biosciences, Japan
Experimental: An in vitro kinase assay of MEK1 was performed using ADP-Glo kinase assay (Promega, Madison, WI, USA) according to the manufacturer’s protocol. […] Reactions were stopped by adding 5 µL of ADP-Glo reagent to each well. After incubating at 22 °C for 40 min, 10 µL of the kinase detection reagent was added and the plates were incubated for another 30 min at 22 °C in the dark. The reaction mixture was analysed by EnSpire (PerkinElmer, Waltham, MA, USA). U0126 was used as the positive control for MEK1 inhibition.

pERK1/2 = test: Western blot of ERK and pERK in HepG2 cells; assay type: cell-based, human; conditions: 48 h
Experimental: HepG2 cells were seeded at a density of 5 × 10^6 cells per well and attached for 8 h, and then treated with different concentrations of compound 10g for 48 h. After the treatment, the cells were harvested and washed twice with PBS. The harvested cells were lysed with radio-immunoprecipitation assay (RIPA) lysis buffer (Beyotime Biotech., Nantong, China) with 1% cocktail (Sigma-Aldrich, USA). Whole-cell protein lysates were prepared and centrifuged at 12,000 rpm for 10 min at 4 °C. The total proteins were determined using Bradford reagent (Bio-Rad Laboratories, Inc., USA). Exactly 40 µg of protein per lane was separated through sodium dodecyl sulfate-polyacrylamide gel electrophoresis and then transferred onto a polyvinylidene difluoride membrane (Millipore, Bedford, MA, USA). The membranes were incubated with each antibody and detected through immunoblot analysis. All of the antibodies were purchased from Cell signaling Technology, Inc. (Boston, MA, USA) and diluted in accordance with the manufacturer’s instruction. Proteins were visualized using a C-Digit® imaging system (LI-COR Biosciences, Lincoln, NE, USA).

HepG2 cells [2] = test: Cell cycle analysis (PI staining, flow cytometry); assay type: cell-based, human; conditions: HepG2, 2 µM (as printed in text), 48 h
Experimental: Cell cycle distributions in HepG2 cells were determined through propidium iodide (PI) staining and analysed by flow cytometry. HepG2 cells were seeded into a six-well plate at 5 × 10^5 cell/mL and treated with different concentrations of compound 10g for 48 h. After treatment, cells were detached with 0.25% trypsin, harvested by centrifugation, washed twice with ice-cold PBS and then fixed and permeabilised with ice-cold 70% ethanol at 4 °C overnight. Ethanol was removed and the cells were washed twice with ice-cold PBS. After this, the cells were treated with 100 µL of RNase (100 µg/mL) at 37 °C for 30 min, followed by incubation with 400 µl of DNA staining solution (PI) (1 mg/mL) in the dark at 4 °C for 30 min. The samples were analyzed by a flow cytometer (Becton-Dickinson FACSCalibur, NJ, USA) and data were analysed using the FlowJo software (Becton-Dickinson & Co, Totowa, NJ, USA).

HepG2 cells [3] = test: ROS generation assay (DCFH-DA); assay type: cell-based, human; conditions: dose-dependent
Experimental: Reactive oxygen species (ROS) generation assay was performed by using the reactive oxygen species assay kit (Beyotime Biotech., China). Intracellular ROS generation was tested through dichlorodihydro fluorescein diacetate (DCFH-DA) assay. DCFH-DA is taken up by HepG2 cells, and then activated by esterase-mediated cleavage of acetate to form dichlorodihydro fluorescein (DCFH), which is trapped in the cells. DCFH is converted to fluorescein DCF in the presence of ROS. HepG2 cells were seeded in six-well plates and incubated with different concentrations of compound 10g for 24 h. After removing the compound solution, cells were treated with 10 µM of DCFH-DA at 37 °C for 20 min. Subsequently, the cells were washed with PBS for three times and then exposed to light. Immediately after light exposure, cell images were acquired through an inverted fluorescence microscope (Olympus 1X71 Inverted System Microscope, Olympus, Tokyo, Japan).

HepG2 cells [4] = test: Mitochondrial membrane potential assay (JC-1); assay type: cell-based, human
Experimental: The JC-1 mitochondrial membrane potential assay kit (Keygene Biotech., China) was employed to measure mitochondrial depolarization in HepG2 cells. Briefly, cells cultured in six-well plates after indicated treatments were incubated with an equal volume of JC-1 staining solution (5 µg/mL) at 37 °C for 20 min and rinsed twice with PBS. Mitochondrial membrane potentials were monitored by determining the relative amounts of dual emissions from mitochondrial JC-1 monomers or aggregates using flow cytometry (Becton-Dickinson FACSCalibur, New York, USA). Mitochondrial depolarization is indicated by an increase in the pencentage of cells with low ΔΨm (green fluorescence, lower right quadrant) compared with cells with high ΔΨm (red fluorescence, upper right quadrant).

T1 sequence (Q02750 whole entry): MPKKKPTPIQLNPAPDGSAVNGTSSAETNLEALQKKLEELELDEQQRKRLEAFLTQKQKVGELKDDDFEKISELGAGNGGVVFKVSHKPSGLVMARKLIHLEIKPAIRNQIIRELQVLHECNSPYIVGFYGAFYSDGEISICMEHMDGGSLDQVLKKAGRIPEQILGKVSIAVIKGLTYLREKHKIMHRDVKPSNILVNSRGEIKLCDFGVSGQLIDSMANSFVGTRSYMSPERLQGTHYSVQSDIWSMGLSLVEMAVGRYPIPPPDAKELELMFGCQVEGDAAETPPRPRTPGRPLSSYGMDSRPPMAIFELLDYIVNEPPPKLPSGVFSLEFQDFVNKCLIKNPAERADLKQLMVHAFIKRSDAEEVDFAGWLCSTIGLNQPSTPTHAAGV

Compound `CCOc1ccc2c(c1)c1c(n2CCN2CCNCC2)-c2cc(C(C)C)ccc2C2(C)CCCC(C)(C(=O)OC)C12` (stereo not drawn) [Compound 10g, 2,3,4,4a,9,13c-Hexahydro-12-ethoxy-7-isopropyl-1,4a-dimethyl-9–(2-(piperazin-1-yl)ethyl)-1H-dibenzo[a,c]carbazole-1-carboxylic acid methyl ester] has an IC50 (Hep3B) of 730 ± 80 nM, an IC50 (HepG2) of 510 ± 90 nM and an IC50 (SMMC-7721) of 1390 ± 130 nM. For the same compound, the IC50 [1] was 12500 ± 580 nM, the IC50 (MEK1) was 110 ± 20 nM and the “expression level of pERK1/2, % of the control group” value (pERK1/2; 0.1 µM) was 88.8%. For the same compound, the “expression level of pERK1/2, % of the control group” value (pERK1/2; 0.5 µM) was 43.8%, the “expression level of pERK1/2, % of the control group” value (pERK1/2; 1.0 µM) was 34.2% and the “expression levels of ERK1/2 (in words)” value (pERK1/2; 0.1-1.0 µM) was “decreased slightly”. For the same compound, the G0/G1 phase cells (HepG2 cells [2]) was 55.37%, the “percentage of cells in G2/M phase” value (HepG2 cells [2]) was 20.09% and the “ROS generation (in words)” value (HepG2 cells [3]) was “remarkably induce ROS generation”. For the same compound, the “percentage of cells with low ΔΨm (lower right quadrant)” value (HepG2 cells [4]; HepG2, 0.2 µM) was 5.29%, the “percentage of cells with low ΔΨm (lower right quadrant)” value (HepG2 cells [4]; HepG2, 0.5 µM) was 9.47% and the “percentage of cells with low ΔΨm (lower right quadrant)” value (HepG2 cells [4]; HepG2, 1.0 µM) was 15.00%.
